Structures can show the parent of a compound that is named as a salt.
system: MV-4-11 cells; experiment: AML cell viability assay (RealTime-Glo); format: cell-based; settings: Homo sapiens, MV4-11, 44 h, read-out: Cell viability classification

First: CCCCCN(CCCCNC(=O)CCC)c1cccc2c1CN(C1CCC(=O)NC1=O)C2=O (stereo not shown) [Compound 148, N-(4-((2-(2,6-dioxopiperidin-3-yl)-1-oxoisoindolin-4-yl)(pentyl)amino)butyl)butyramide]
Second: CCCCCN(CCCCNC(=O)CC(C)C)c1cccc2c1CN(C1CCC(=O)NC1=O)C2=O (stereo not shown) [Compound 149, N-(4-((2-(2,6-dioxopiperidin-3-yl)-1-oxoisoindolin-4-yl)(pentyl)amino)butyl)-3-methylbutanamide]
The IC50 of the first is lower: 100 to 1000 nM for the first, over 1000 nM for the second. The first is the more potent here.

same assay, conditions: Homo sapiens, MV4-11; IC50 class; MV-4-11 cells, RealTime-Glo after 44 hrs of treatment (TABLE 1); read-out: Cell viability classification

Compared with CCCN(CCN)c1cccc2c1CN(C1CCC(=O)NC1=O)C2=O (stereo not shown) [Compound 49, 3-(4-((2-aminoethyl)(propyl)amino)-1-oxoisoindolin-2-yl)piperidine-2,6-dione], CCCN(CCCN)c1cccc2c1CN(C1CCC(=O)NC1=O)C2=O (stereo not shown) [Compound 53, 3-(4-((3-aminopropyl)(propyl)amino)-1-oxoisoindolin-2-yl)piperidine-2,6-dione] is lower in IC50: over 1000 nM for the first, 100 to 1000 nM for the second. The second is the more potent here.

N[C@H]1CC[C@H](N(CCc2ccccc2)c2cccc3c2CN(C2CCC(=O)NC2=O)C3=O)CC1 (stereo partly shown) [Compound 247, 3-(4-(((1r,4r)-4-aminocyclohexyl)(phenethyl)amino)-1-oxoisoindolin-2-yl)piperidine-2,6-dione, HCl] and N[C@H]1CC[C@H](N(CCCC2CCOC2)c2cccc3c2CN(C2CCC(=O)NC2=O)C3=O)CC1 (stereo partly shown) [Compound 345, 3-(4-(((1r,4r)-4-aminocyclohexyl)(3-(tetrahydrofuran-3-yl)propyl)amino)-1-oxoisoindolin-2-yl)piperidine-2,6-dione] fall in the same range of IC50: 100 to 1000 nM for the first, 100 to 1000 nM for the second.

CCCCCN(c1cccc2c1CN(C1CCC(=O)NC1=O)C2=O)[C@H]1CCC[C@H](N)C1 (stereo partly drawn) [Compound 327, 3-(4-(((1S,3S)-3-aminocyclohexyl)(pentyl)amino)-1-oxoisoindolin-2-yl)piperidine-2,6-dione] and CCCCCN(c1cccc2c1CN(C1CCC(=O)NC1=O)C2=O)[C@H]1CCC[C@@H](N)C1 (stereo partly drawn) [Compound 328, 3-(4-(((1S,3R)-3-aminocyclohexyl)(pentyl)amino)-1-oxoisoindolin-2-yl)piperidine-2,6-dione] cannot be ordered by IC50: under 100 nM for the first, under 100 nM for the second.

Going from CC(C)(C)CCN(c1cccc2c1CN(C1CCC(=O)NC1=O)C2=O)[C@H]1CC[C@@H](CN)CC1 (stereo partly shown) [Compound 332, 3-(4-(((1s,4s)-4-(aminomethyl)cyclohexyl)(3,3-dimethylbutyl)amino)-1-oxoisoindolin-2-yl)piperidine-2,6-dione] to C[C@H]1CC[C@@H](N(c2cccc3c2CN(C2CCC(=O)NC2=O)C3=O)[C@H]2CC[C@@H](CN)CC2)CC1 (stereo partly drawn) [Compound 334, 3-(4-(((1s,4S)-4-(aminomethyl)cyclohexyl)((1s,4S)-4-methylcyclohexyl)amino)-1-oxoisoindolin-2-yl)piperidine-2,6-dione], the IC50 rises from under 100 nM to over 1000 nM. The first is the more potent here.

N[C@H]1CC[C@H](N(CCCC2CCCOC2)c2cccc3c2CN(C2CCC(=O)NC2=O)C3=O)CC1 (stereo partly shown) [Compound 340, 3-(4-(((1r,4r)-4-aminocyclohexyl)(3-(tetrahydro-2H-pyran-3-yl)propyl)amino)-1-oxoisoindolin-2-yl)piperidine-2,6-dione, HCl] and N[C@H]1CC[C@H](N(CCCC2CCCCO2)c2cccc3c2CN(C2CCC(=O)NC2=O)C3=O)CC1 (stereo partly shown) [Compound 341, 3-(4-(((1r,4r)-4-aminocyclohexyl)(3-(tetrahydro-2H-pyran-2-yl)propyl)amino)-1-oxoisoindolin-2-yl)piperidine-2,6-dione, HCl] fall in the same range of IC50: 100 to 1000 nM for the first, 100 to 1000 nM for the second.

N[C@H]1CC[C@H](N(CCC=C2CCOCC2)c2cccc3c2CN(C2CCC(=O)NC2=O)C3=O)CC1 (stereo partly shown) [Compound 344, 3-(4-(((1r,4r)-4-aminocyclohexyl)(3-(tetrahydro-4H-pyran-4-ylidene)propyl)amino)-1-oxoisoindolin-2-yl)piperidine-2,6-dione. Formic Acid] showed an IC50 of 100 to 1000 nM.

same assay, conditions: Homo sapiens, MV4-11; IC50 class; MV-4-11 cells, RealTime-Glo after 44 hrs of treatment (TABLE 2); read-out: Cell viability classification

CCCCCN(C[C@H]1CC[C@@H](N)CC1)c1cccc2c1CN(C1CCC(=O)NC1=O)C2=O (stereo partly shown) [Compound 91, 3-(4-((((1s,4s)-4-aminocyclohexyl)methyl)(pentyl)amino)-1-oxoisoindolin-2-yl)piperidine-2,6-dione, HCl] and CCCCCN(C[C@H]1CC[C@H](N)CC1)c1cccc2c1CN(C1CCC(=O)NC1=O)C2=O (stereo partly shown) [Compound 92, 3-(4-((((1r,4r)-4-aminocyclohexyl)methyl)(pentyl)amino)-1-oxoisoindolin-2-yl)piperidine-2,6-dione, HCl] cannot be ordered by IC50: under 100 nM for the first, under 100 nM for the second.

Compared with NCCCCN(CCCCN)c1cccc2c1CN(C1CCC(=O)NC1=O)C2=O (stereo not shown) [Compound 96, 3-(4-(bis(4-aminobutyl)amino)-1-oxoisoindolin-2-yl)piperidine-2,6-dione dihydrochloride], NCCCCN(CCCN)c1cccc2c1CN(C1CCC(=O)NC1=O)C2=O (stereo not shown) [Compound 97, 3-(4-((4-aminobutyl)(3-aminopropyl)amino)-1-oxoisoindolin-2-yl)piperidine-2,6-dione dihydrochloride] is higher in IC50: 100 to 1000 nM for the first, over 1000 nM for the second. The first is the more potent here.

NCCCCN(c1cccc2c1CN(C1CCC(=O)NC1=O)C2=O)[C@H]1CC[C@@H](N)CC1 (stereo partly drawn) [Compound 102, 3-(4-((4-aminobutyl)((1S,4S)-4-aminocyclohexyl)amino)-1-oxoisoindolin-2-yl)piperidine-2,6-dione dihydrochloride] and NCCCCN(c1cccc2c1CN(C1CCC(=O)NC1=O)C2=O)[C@H]1CC[C@H](N)CC1 (stereo partly shown) [Compound 103, 3-(4-((4-aminobutyl)((1r,4r)-4-aminocyclohexyl)amino)-1-oxoisoindolin-2-yl)piperidine-2,6-dione, 2HCl] fall in the same range of IC50: 100 to 1000 nM for the first, 100 to 1000 nM for the second.

NCCCCN(c1cccc2c1CN(C1CCC(=O)NC1=O)C2=O)[C@H]1CC[C@@H](CN)CC1 (stereo partly shown) [Compound 104, 3-(4-((4-aminobutyl)((1s,4s)-4-(aminomethyl)cyclohexyl)amino)-1-oxoisoindolin-2-yl)piperidine-2,6-dione dihydrochloride] and NCCCCN(c1cccc2c1CN(C1CCC(=O)NC1=O)C2=O)[C@H]1CC[C@H](CN)CC1 (stereo partly drawn) [Compound 105, 3-(4-((4-aminobutyl)((1R,4R)-4-(aminomethyl)cyclohexyl)amino)-1-oxoisoindolin-2-yl)piperidine-2,6-dione, 2HCl] fall in the same range of IC50: 100 to 1000 nM for the first, 100 to 1000 nM for the second.

NCCCCN(C[C@H]1CC[C@@H](N)CC1)c1cccc2c1CN(C1CCC(=O)NC1=O)C2=O (stereo partly shown) [Compound 106, 3-(4-((4-aminobutyl)(((1s,4s)-4-aminocyclohexyl)methyl)amino)-1-oxoisoindolin-2-yl)piperidine-2,6-dione, 2HCl] and NCCCCN(C[C@H]1CC[C@H](N)CC1)c1cccc2c1CN(C1CCC(=O)NC1=O)C2=O (stereo partly shown) [Compound 107, 3-(4-((4-aminobutyl)(((1r,4r)-4-aminocyclohexyl)methyl)amino)-1-oxoisoindolin-2-yl)piperidine-2,6-dione, HCl] fall in the same range of IC50: 100 to 1000 nM for the first, 100 to 1000 nM for the second.

First: C[C@H]1CC[C@@H](N(CCCCN)c2cccc3c2CN(C2CCC(=O)NC2=O)C3=O)CC1 (stereo partly shown) [Compound 108, 3-(4-((4-aminobutyl)((1s,4s)-4-methylcyclohexyl)amino)-1-oxoisoindolin-2-yl)piperidine-2,6-dione hydrochloride]
Second: C[C@H]1CC[C@H](N(CCCCN)c2cccc3c2CN(C2CCC(=O)NC2=O)C3=O)CC1 (stereo partly shown) [Compound 109, 3-(4-((4-aminobutyl)((1r,4r)-4-methylcyclohexyl)amino)-1-oxoisoindolin-2-yl)piperidine-2,6-dione hydrochloride]
The IC50 of the first is lower: under 100 nM for the first, 100 to 1000 nM for the second.

CCCCCN(CCC(C)(C)CN)c1cccc2c1CN(C1CCC(=O)NC1=O)C2=O (stereo not shown) [Compound 123, 3-(4-((4-amino-3,3-dimethylbutyl)(pentyl)amino)-1-oxoisoindolin-2-yl)piperidine-2,6-dione hydrochloride] and CC(C)(CN)CCN(CCCCN)c1cccc2c1CN(C1CCC(=O)NC1=O)C2=O (stereo not shown) [Compound 124, 3-(4-((4-amino-3,3-dimethylbutyl)(4-aminobutyl)amino)-1-oxoisoindolin-2-yl)piperidine-2,6-dione dihydrochloride] cannot be ordered by IC50: under 100 nM for the first, under 100 nM for the second.

First: CC(C)(CCN)CCN(CCCCN)c1cccc2c1CN(C1CCC(=O)NC1=O)C2=O (stereo not shown) [Compound 125, 3-(4-((5-amino-3,3-dimethylpentyl)(4-aminobutyl)amino)-1-oxoisoindolin-2-yl)piperidine-2,6-dione dihydrochloride]
Second: CC(C)(CN)CCCN(CCCCN)c1cccc2c1CN(C1CCC(=O)NC1=O)C2=O (stereo not shown) [Compound 126, 3-(4-((5-amino-4,4-dimethylpentyl)(4-aminobutyl)amino)-1-oxoisoindolin-2-yl)piperidine-2,6-dione dihydrochloride]
The IC50 of the first is higher: 100 to 1000 nM for the first, under 100 nM for the second. The second is the more potent here.

CCCCCN(CCCCNC(=O)NC)c1cccc2c1CN(C1CCC(=O)NC1=O)C2=O (stereo not shown) [Compound 143, 1-(4-((2-(2,6-dioxopiperidin-3-yl)-1-oxoisoindolin-4-yl)(pentyl)amino)butyl)-3-methylurea] and CCCCCN(CCCCNC(=O)CNC)c1cccc2c1CN(C1CCC(=O)NC1=O)C2=O (stereo not shown) [Compound 181, N-(4-((2-(2,6-dioxopiperidin-3-yl)-1-oxoisoindolin-4-yl)(pentyl)amino)butyl)-2-(methylamino)acetamide] fall in the same range of IC50: 100 to 1000 nM for the first, 100 to 1000 nM for the second.

CCCCCN(CCCCNC(=O)CC(C)(C)C)c1cccc2c1CN(C1CCC(=O)NC1=O)C2=O (stereo not shown) [Compound 150, N-(4-((2-(2,6-dioxopiperidin-3-yl)-1-oxoisoindolin-4-yl)(pentyl)amino)butyl)-3,3-dimethylbutanamide] and CCCCCN(CCCCNC(=O)CC1CCCCC1)c1cccc2c1CN(C1CCC(=O)NC1=O)C2=O (stereo not shown) [Compound 151, 2-cyclohexyl-N-(4-((2-(2,6-dioxopiperidin-3-yl)-1-oxoisoindolin-4-yl)(pentyl)amino)butyl)acetamide] cannot be ordered by IC50: over 1000 nM for the first, over 1000 nM for the second.

same assay, conditions: Homo sapiens, MV4-11; IC50 class; MV-4-11 cells, RealTime-Glo after 44 hrs of treatment (TABLE 3); read-out: Cell viability classification

Compound C[C@H]1CC[C@@H](N(c2cccc3c2CN(C2CCC(=O)NC2=O)C3=O)[C@H]2CC[C@H](N)CC2)CC1 (stereo partly drawn) [Compound 331, 3-(4-(((1r,4R)-4-aminocyclohexyl)((1s,4S)-4-methylcyclohexyl)amino)-1-oxoisoindolin-2-yl)piperidine-2,6-dione] has an IC50 of over 1000 nM.

Source: patent US20250188069A1, “COMPOUNDS AND METHODS FOR DEGRADING CASEIN KINASE 1 ALPHA” (PIN THERAPEUTICS, INC., priority 2022, published 2025)
